Results reported in patent US20180074053A1 (priority 2016, published 2018).
Where two headings read alike, the source gives them in different places.

Legend:
NK2 = NK2 (Homo sapiens, UniProt P21452); assay: cell-based
Method: (§1) The platform uses ChemiScreen GPCR stable cell lines that are used for real-time calcium flux assays to rapidly, screen a spectrum of GPCRs. […] Percentage activation values were determined upon initial addition of compound(s). Percentage activation and inhibition values were determined for each GPCR relative to the reference compounds.
(§2) Assays were performed according to the manufacturer's instructions. […] The assay plate was read by the FLIPR TETRA® (Molecular Devices, Sunnyvale, Calif.). All assay plate data were subjected to appropriate baseline corrections and the maximum fluorescence values were processed to calculate percentage activation (relative to ECmax reference agonist and vehicle control values).

GPCR109a = GPCR109a (Homo sapiens, UniProt Q8TDS4); assay: cell-based
Method: as §1, §2

NMUR2 = NMUR2 (Homo sapiens, UniProt Q9GZQ4); assay: cell-based
Method: as §1, §2

NOP = NOP (Homo sapiens, UniProt P41146); assay: cell-based
Method: as §1, §2

Motilin = Motilin (Homo sapiens, UniProt O43193); assay: cell-based
Method: as §1, §2

NMUR1 = NMUR1 (Homo sapiens, UniProt Q9HB89); assay: cell-based
Method: as §1, §2

MRGX1 = MRGX1 (Homo sapiens, UniProt Q96LB2); assay: cell-based
Method: as §1, §2

[1] = system: C57/BL/6J mice and diabetic mouse models; settings: previous studies (Zhang 2013; U.S. Pat. No. 8,664,177); cited from earlier work
[2] = read-out: percent activation compared to standards, DT-110 @ 1.25 mM, Avg.
[3] = read-out: percent activation compared to standards, DT-110 @ 1.25 mM, n1
[4] = read-out: percent activation compared to standards, DT-110 @ 1.25 mM, n2
[5] = read-out: percent activation compared to standards, DT-110 @ 12.5 mM, Avg.
[6] = read-out: percent activation compared to standards, DT-110 @ 12.5 mM, n1
[7] = read-out: percent activation compared to standards, DT-110 @ 12.5 mM, n2

Sequence of GPCR109a (Q8TDS4 whole entry): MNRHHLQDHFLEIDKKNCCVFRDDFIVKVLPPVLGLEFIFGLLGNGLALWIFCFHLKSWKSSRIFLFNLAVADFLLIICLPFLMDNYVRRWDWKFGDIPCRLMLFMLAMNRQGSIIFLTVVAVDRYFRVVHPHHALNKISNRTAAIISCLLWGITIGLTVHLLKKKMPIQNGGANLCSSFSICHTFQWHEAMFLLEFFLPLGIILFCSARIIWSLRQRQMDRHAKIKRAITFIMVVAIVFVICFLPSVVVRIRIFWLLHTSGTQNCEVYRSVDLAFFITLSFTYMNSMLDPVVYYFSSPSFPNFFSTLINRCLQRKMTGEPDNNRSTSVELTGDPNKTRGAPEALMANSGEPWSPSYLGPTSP
Sequence of MRGX1 (Q96LB2 whole entry): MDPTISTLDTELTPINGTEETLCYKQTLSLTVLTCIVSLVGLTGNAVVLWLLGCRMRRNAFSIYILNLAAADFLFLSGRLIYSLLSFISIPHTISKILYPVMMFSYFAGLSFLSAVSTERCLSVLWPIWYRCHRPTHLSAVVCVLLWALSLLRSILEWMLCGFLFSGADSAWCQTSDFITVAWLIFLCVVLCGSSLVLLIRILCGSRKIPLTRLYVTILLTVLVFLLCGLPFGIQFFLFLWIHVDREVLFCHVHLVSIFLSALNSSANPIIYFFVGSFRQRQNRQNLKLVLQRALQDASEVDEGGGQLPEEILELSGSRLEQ
Sequence of Motilin (O43193 whole entry): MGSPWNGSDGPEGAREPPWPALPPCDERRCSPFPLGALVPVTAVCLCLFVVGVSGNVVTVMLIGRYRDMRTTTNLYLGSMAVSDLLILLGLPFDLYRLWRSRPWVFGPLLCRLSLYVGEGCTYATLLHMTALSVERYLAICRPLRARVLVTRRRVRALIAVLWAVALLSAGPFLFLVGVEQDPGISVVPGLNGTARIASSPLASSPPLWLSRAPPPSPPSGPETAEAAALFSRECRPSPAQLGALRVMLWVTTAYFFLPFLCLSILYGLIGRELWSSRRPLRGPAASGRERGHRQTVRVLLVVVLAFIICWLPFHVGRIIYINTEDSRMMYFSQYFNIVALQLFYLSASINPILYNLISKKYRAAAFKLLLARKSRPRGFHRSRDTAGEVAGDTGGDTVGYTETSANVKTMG
Sequence of NMUR1 (Q9HB89 whole entry): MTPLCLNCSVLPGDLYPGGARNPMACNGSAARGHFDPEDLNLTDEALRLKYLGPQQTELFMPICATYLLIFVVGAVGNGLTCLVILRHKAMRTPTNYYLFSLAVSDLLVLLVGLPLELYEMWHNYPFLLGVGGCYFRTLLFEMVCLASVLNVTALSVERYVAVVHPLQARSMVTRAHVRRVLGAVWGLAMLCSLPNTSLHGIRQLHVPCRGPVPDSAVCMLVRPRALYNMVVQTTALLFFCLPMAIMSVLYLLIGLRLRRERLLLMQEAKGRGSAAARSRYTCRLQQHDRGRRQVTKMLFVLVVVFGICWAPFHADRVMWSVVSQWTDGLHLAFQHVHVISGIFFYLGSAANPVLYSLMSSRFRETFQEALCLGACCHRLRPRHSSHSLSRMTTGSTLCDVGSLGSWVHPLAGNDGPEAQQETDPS
Sequence of NK2 (P21452 whole entry): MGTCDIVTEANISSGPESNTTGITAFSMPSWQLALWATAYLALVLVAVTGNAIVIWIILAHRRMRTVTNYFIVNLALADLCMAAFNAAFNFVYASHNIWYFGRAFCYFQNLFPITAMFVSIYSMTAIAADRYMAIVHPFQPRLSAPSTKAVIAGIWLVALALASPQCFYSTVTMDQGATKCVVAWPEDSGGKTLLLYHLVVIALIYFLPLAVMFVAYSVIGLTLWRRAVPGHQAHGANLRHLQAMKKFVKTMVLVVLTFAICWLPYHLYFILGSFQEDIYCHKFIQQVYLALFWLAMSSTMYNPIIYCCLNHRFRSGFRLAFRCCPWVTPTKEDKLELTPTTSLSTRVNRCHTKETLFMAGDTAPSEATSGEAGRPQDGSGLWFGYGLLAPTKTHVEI
Sequence of NOP (P41146 whole entry): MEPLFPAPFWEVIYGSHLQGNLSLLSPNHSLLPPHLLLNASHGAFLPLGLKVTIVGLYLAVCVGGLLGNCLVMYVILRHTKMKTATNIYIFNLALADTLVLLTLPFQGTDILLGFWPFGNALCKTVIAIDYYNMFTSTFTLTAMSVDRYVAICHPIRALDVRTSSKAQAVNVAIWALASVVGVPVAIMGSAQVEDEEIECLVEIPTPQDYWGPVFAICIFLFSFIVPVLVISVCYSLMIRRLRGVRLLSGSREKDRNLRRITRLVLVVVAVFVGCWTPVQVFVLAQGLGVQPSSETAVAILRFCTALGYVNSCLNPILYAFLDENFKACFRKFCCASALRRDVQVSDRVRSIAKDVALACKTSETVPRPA
Sequence of NMUR2 (Q9GZQ4 whole entry): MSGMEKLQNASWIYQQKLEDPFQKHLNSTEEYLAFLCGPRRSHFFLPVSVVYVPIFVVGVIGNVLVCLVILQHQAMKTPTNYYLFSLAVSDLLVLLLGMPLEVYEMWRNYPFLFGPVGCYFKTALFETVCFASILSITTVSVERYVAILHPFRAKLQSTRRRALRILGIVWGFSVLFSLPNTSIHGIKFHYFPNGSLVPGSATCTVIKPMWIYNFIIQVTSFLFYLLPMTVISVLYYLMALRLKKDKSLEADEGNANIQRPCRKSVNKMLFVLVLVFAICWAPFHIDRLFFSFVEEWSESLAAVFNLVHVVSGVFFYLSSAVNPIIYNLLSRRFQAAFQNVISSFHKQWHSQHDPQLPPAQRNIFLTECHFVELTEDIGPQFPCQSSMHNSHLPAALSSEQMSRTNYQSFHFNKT

SMILES: CC(C)C[C@@H](NC(=O)CNC(=O)CN)C(=O)O
- activation at 1250 µM (NK2; [2]): -9.5%
- activation at 1250 µM (NK2; [3]): -9.4%
- activation at 1250 µM (NK2; [4]): -9.6%
- activation at 12500 µM (NK2; [5]): -9.6%
- activation at 12500 µM (NK2; [6]): -9.5%
- activation at 12500 µM (NK2; [7]): -9.7%
- activation at 1250 µM (GPCR109a; [2]): -8.1%
- activation at 1250 µM (GPCR109a; [3]): -8.1%
- activation at 1250 µM (GPCR109a; [4]): -8%
- activation at 12500 µM (GPCR109a; [5]): 54.3%
- activation at 12500 µM (GPCR109a; [6]): 52.9%
- activation at 12500 µM (GPCR109a; [7]): 55.7%
- activation at 1250 µM (NMUR2; [2]): 2.4%
- activation at 1250 µM (NMUR2; [3]): 0.9%
- activation at 1250 µM (NMUR2; [4]): 3.9%
- activation at 12500 µM (NMUR2; [5]): -0.9%
- activation at 12500 µM (NMUR2; [6]): 0.4%
- activation at 12500 µM (NMUR2; [7]): -2.2%
- activation at 1250 µM (NOP; [2]): -0.1%
- activation at 1250 µM (NOP; [3]): -7.8%
- activation at 1250 µM (NOP; [4]): 7.6%
- activation at 12500 µM (NOP; [5]): -2.3%
- activation at 12500 µM (NOP; [6]): 3.4%
- activation at 12500 µM (NOP; [7]): -8%
- activation at 1250 µM (Motilin; [2]): -0.3%
- activation at 1250 µM (Motilin; [3]): -0.3%
- activation at 1250 µM (Motilin; [4]): -0.3%
- activation at 12500 µM (Motilin; [5]): -0.4%
- activation at 12500 µM (Motilin; [6]): -0.3%
- activation at 12500 µM (Motilin; [7]): -0.5%
- activation at 1250 µM (NMUR1; [2]): 0.5%
- activation at 1250 µM (NMUR1; [3]): 1.3%
- activation at 1250 µM (NMUR1; [4]): -0.4%
- activation at 12500 µM (NMUR1; [5]): -0.1%
- activation at 12500 µM (NMUR1; [6]): -0.7%
- activation at 12500 µM (NMUR1; [7]): 0.5%
- activation at 1250 µM (MRGX1; [2]): -1.9%
- activation at 1250 µM (MRGX1; [3]): -1.3%
- activation at 1250 µM (MRGX1; [4]): -2.5%
- activation at 12500 µM (MRGX1; [5]): -6.6%
- activation at 12500 µM (MRGX1; [6]): -6.7%
- activation at 12500 µM (MRGX1; [7]): -6.6%
- blood glucose [1]: lower blood glucose
